In patent publication US9302999B2, “Substituted triazoles as herbicides” (E. I. DU PONT DE NEMOURS AND COMPANY, priority 2012, dated 2016):
Read-outs that look alike come from different tables or passages of the source.

Columns and labels:
Assay type in all cases: in vivo
[1] = tested on: barnyardgrass (Echinochloa crus-galli); assay: Test B flooded paddy: barnyardgrass; conditions: Flood, applied to paddy water at 2-leaf stage, visually evaluated after 13 to 15 days
Summary of the method: (§1)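 Visual ratings (0 = no effect, 100 = complete control) versus untreated controls were taken 13–15 days after treatment of greenhouse plants. Treatment was added to paddy water held at 3 cm depth on 2-leaf-stage seedlings.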

[2] = tested on: large crabgrass (Digitaria sanguinalis); assay: Test C pre-/postemergence: large crabgrass
Summary of the method: (§2)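 Visual injury scored 0–100 (100 = complete control) against untreated controls after 13–15 greenhouse days. Surfactant-containing solvent formulations applied either to soil after sowing (loam/sand) or over 1- to 4-leaf plants, 2–18 cm tall.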

[3] = tested on: velvetleaf (Abutilon theophrasti); assay: Test A pre-/postemergence: velvetleaf; conditions: for pest or weed control at 125 g/ha / pest or weed control at 500 g/ha: Abutilon theophrasti, 240 h
Summary of the method: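 Soil medium was loam blended with sand; treatments pre- and postemergence were applied concurrently, postemergence at one- to two-leaf stage. Approximately ten days in greenhouse preceded visual comparison with untreated controls, scored 0 (no effect) to 100 (complete control).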

[4] = tested on: chickweed (common chickweed, Stellaria media); assay: Test C postemergence: chickweed
Summary of the method: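 Visual ratings of 0 (no effect) to 100 (complete control) were made against controls 13-15 days after a postemergence spray, with plants kept in a greenhouse. Plants were 2-18 cm tall (1- to 4-leaf stage) in Redi-Earth peat/vermiculite medium at treatment.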

[5] = tested on: sedge, umbrella (small-flower umbrella sedge Cyperus difformis); assay: Test B flooded paddy: sedge, umbrella; conditions: Flood, applied to paddy water at 2-leaf stage, visually evaluated after 13 to 15 days
Summary of the method: as §1

corn (Zea mays) = assay: Test C pre-/postemergence: corn
Summary of the method: as §2

[6] = tested on: blackgrass (Alopecurus myosuroides); assay: Test C pre-/postemergence: blackgrass
Summary of the method: as §2

[7] = tested on: morningglory (Ipomoea coccinea); assay: Test C pre-/postemergence: morningglory
Summary of the method: as §2

[8] = tested on: ryegrass, Italian (Italian ryegrass, Lolium multiflorum); assay: Test C pre-/postemergence: ryegrass, Italian
Summary of the method: as §2

[9] = tested on: ducksalad (Heteranthera limosa); assay: Test B flooded paddy: ducksalad; conditions: Flood, applied to paddy water at 2-leaf stage, visually evaluated after 13 to 15 days
Summary of the method: as §1

[10] = tested on: winter wheat (Triticum aestivum); assay: Test C pre-/postemergence: winter wheat
Summary of the method: as §2

[11] = Postemergence, 16 g ai/ha, scale 0 to 100, 0 no effect, 100 complete control
[12] = Postemergence, 31 g ai/ha, scale 0 to 100 (0 no effect, 100 complete control)
[13] = Postemergence, 62 g ai/ha, scale 0 to 100 (0 no effect, 100 complete control)
[14] = Postemergence, 125 g ai/ha, scale 0 to 100, 0 no effect, 100 complete control
[15] = Preemergence, 16 g ai/ha, scale 0 (no effect) to 100 (complete control)
[16] = Preemergence, 31 g ai/ha, scale of 0 to 100, 0 is no effect, 100 is complete control
[17] = Preemergence, 62 g ai/ha, scale of 0 to 100, 0 is no effect, 100 is complete control
[18] = Preemergence, 125 g ai/ha, scale 0 to 100, 0 no effect, 100 complete control
[19] = 31 g ai/ha, scale 0 to 100 (0 no effect, 100 complete control)
[20] = 62 g ai/ha, scale 0 to 100 (0 no effect, 100 complete control)
[21] = 125 g ai/ha, scale 0 to 100, 0 no effect, 100 complete control
[22] = Postemergence, 250 g ai/ha, scale 0 to 100
[23] = Preemergence, 31 g ai/ha, scale 0 (no effect) to 100 (complete control)
[24] = Preemergence, 250 g ai/ha, scale 0 to 100, 0 no effect, 100 complete control

FCc1nn(-c2ccc(F)cc2)nc1Oc1ccnc(C(F)(F)F)c1 [Compound 160]
Plant response rating, Barnyardgrass (0 to 100 scale, 0 is no effect, 100 is complete control) ([1]; 250 g ai/ha): 65
Plant response rating, Crabgrass, Large [2, 11]: 20
Plant response rating, Crabgrass, Large [2, 12]: 25
Plant response rating, Crabgrass, Large [2, 13]: 35
Plant response rating, Crabgrass, Large [2, 14]: 40
Plant response rating, Crabgrass, Large [2, 15]: 90
Plant response rating, Crabgrass, Large [2, 16]: 100
Plant response rating, Crabgrass, Large [2, 17]: 100
Plant response rating, Crabgrass, Large [2, 18]: 100
Plant response rating, Velvetleaf ([3]; Postemergence, 125 g ai/ha, 0 to 100 scale, 0 is no effect, 100 is complete control): 90
Velvetleaf plant response rating ([3]; Postemergence, 500 g ai/ha, visual rating on 0 to 100 scale (0 no effect, 100 complete control), approximately ten days): 100
Plant response rating, Velvetleaf ([3]; Preemergence, 125 g ai/ha, 0 to 100 scale where 0 is no effect and 100 is complete control): 50
Plant response rating, Velvetleaf ([3]; Preemergence, 500 g ai/ha, 0 to 100 scale (0 no effect, 100 complete control)): 70
Plant response rating, Chickweed ([4]; 16 g ai/ha, scale 0 to 100, 0 no effect, 100 complete control): 70
Plant response rating, Chickweed [4, 19]: 90
Plant response rating, Chickweed [4, 20]: 95
Plant response rating, Chickweed [4, 21]: 98
Plant response rating, Sedge, Umbrella (0 to 100 scale, 0 is no effect, 100 is complete control) ([5]; 250 g ai/ha): 85
Plant response rating, Corn (corn (Zea mays); [11]): 15
Plant response rating, Corn (corn (Zea mays); [12]): 15
Plant response rating, Corn (corn (Zea mays); [13]): 20
Plant response rating, Corn (corn (Zea mays); [14]): 25
Plant response rating, Corn (corn (Zea mays); [15]): 5
Plant response rating, Corn (corn (Zea mays); [16]): 5
Plant response rating, Corn (corn (Zea mays); [17]): 5
Plant response rating, Corn (corn (Zea mays); [18]): 5
Plant response rating, Blackgrass [6, 11]: 25
Plant response rating, Blackgrass [6, 12]: 35
Plant response rating, Blackgrass [6, 13]: 45
Plant response rating, Blackgrass [6, 14]: 65
Plant response rating, Blackgrass [6, 15]: 0
Plant response rating, Blackgrass [6, 16]: 40
Plant response rating, Blackgrass [6, 17]: 90
Plant response rating, Blackgrass [6, 18]: 90
Plant response rating, Morningglory [7, 11]: 60
Plant response rating, Morningglory [7, 12]: 60
Plant response rating, Morningglory [7, 13]: 98
Plant response rating, Morningglory [7, 14]: 98
Plant response rating, Morningglory [7, 15]: 0
Plant response rating, Morningglory [7, 16]: 5
Plant response rating, Morningglory [7, 17]: 15
Plant response rating, Morningglory [7, 18]: 20
Plant response rating, Ryegrass, Italian [8, 11]: 10
Plant response rating, Ryegrass, Italian [8, 12]: 30
Plant response rating, Ryegrass, Italian [8, 13]: 30
Plant response rating, Ryegrass, Italian [8, 14]: 45
Plant response rating, Ryegrass, Italian [8, 15]: 5
Plant response rating, Ryegrass, Italian [8, 16]: 15
Plant response rating, Ryegrass, Italian [8, 17]: 80
Plant response rating, Ryegrass, Italian [8, 18]: 90
Plant response rating, Ducksalad (0 to 100 scale, 0 is no effect, 100 is complete control) ([9]; 250 g ai/ha): 90
Plant response rating, Wheat [10, 11]: 5
Plant response rating, Wheat [10, 12]: 5
Plant response rating, Wheat [10, 13]: 25
Plant response rating, Wheat [10, 14]: 25
Plant response rating, Wheat [10, 15]: 0
Plant response rating, Wheat [10, 17]: 15
Plant response rating, Wheat [10, 18]: 40

CCOc1nn(-c2ccc(C(F)(F)F)cc2)nc1Cc1ccnc(C(F)(F)F)c1 [Compound 164, 4-[[5-ethoxy-2-[4-(trifluoromethyl)phenyl]-2H-1,2,3-triazol-4-yl]methyl]-2-(trifluoromethyl)pyridine]
Plant response rating, Barnyardgrass (0 to 100 scale, 0 is no effect, 100 is complete control) ([1]; 125 g ai/ha): 60
Plant response rating, Crabgrass, Large [2, 12]: 5
Plant response rating, Crabgrass, Large [2, 13]: 5
Plant response rating, Crabgrass, Large [2, 14]: 10
Plant response rating, Crabgrass, Large [2, 22]: 10
Plant response rating, Crabgrass, Large [2, 23]: 70
Plant response rating, Crabgrass, Large [2, 17]: 75
Plant response rating, Crabgrass, Large [2, 18]: 98
Plant response rating, Crabgrass, Large [2, 24]: 100
pest or weed control at 125 g/ha ([3]; post-emergence, Postemergence, 125 g ai/ha, 0 to 100 scale, 0 is no effect, 100 is complete control, read-out: Plant response rating, Velvetleaf): 100%
pest or weed control at 500 g/ha ([3]; post-emergence, Postemergence, 500 g ai/ha, 0 to 100 scale, 0 is no effect, 100 is complete control, read-out: Velvetleaf plant response rating): 100%
pest or weed control at 125 g/ha ([3]; pre-emergence, Preemergence, 125 g ai/ha, 0 to 100 scale where 0 is no effect and 100 is complete control, read-out: Plant response rating, Velvetleaf): 80%
pest or weed control at 500 g/ha ([3]; pre-emergence, Preemergence, 500 g ai/ha, 0 to 100 scale (0 no effect, 100 complete control), read-out: Plant response rating, Velvetleaf): 100%
Plant response rating, Chickweed [4, 19]: 10
Plant response rating, Chickweed [4, 20]: 40
Plant response rating, Chickweed [4, 21]: 45
Plant response rating, Chickweed ([4]; 250 g ai/ha, scale 0 to 100): 45
Plant response rating, Sedge, Umbrella (0 to 100 scale, 0 is no effect, 100 is complete control) ([5]; 125 g ai/ha): 75
Plant response rating, Corn (corn (Zea mays); [12]): 15
Plant response rating, Corn (corn (Zea mays); [13]): 15
Plant response rating, Corn (corn (Zea mays); [14]): 20
Plant response rating, Corn (corn (Zea mays); [22]): 20
Plant response rating, Corn (corn (Zea mays); [23]): 0
Plant response rating, Corn (corn (Zea mays); [17]): 5
Plant response rating, Corn (corn (Zea mays); [18]): 10
Plant response rating, Corn (corn (Zea mays); [24]): 10
Plant response rating, Blackgrass [6, 12]: 5
Plant response rating, Blackgrass [6, 13]: 5
Plant response rating, Blackgrass [6, 14]: 15
Plant response rating, Blackgrass [6, 22]: 15
Plant response rating, Blackgrass [6, 23]: 5
Plant response rating, Blackgrass [6, 17]: 10
Plant response rating, Blackgrass [6, 18]: 60
Plant response rating, Blackgrass [6, 24]: 70
Plant response rating, Morningglory [7, 12]: 50
Plant response rating, Morningglory [7, 13]: 60
Plant response rating, Morningglory [7, 22]: 75
Plant response rating, Morningglory [7, 23]: 5
Plant response rating, Morningglory [7, 17]: 15
Plant response rating, Morningglory [7, 18]: 25
Plant response rating, Morningglory [7, 24]: 45
Plant response rating, Ryegrass, Italian [8, 12]: 5
Plant response rating, Ryegrass, Italian [8, 13]: 5
Plant response rating, Ryegrass, Italian [8, 14]: 5
Plant response rating, Ryegrass, Italian [8, 22]: 5
Plant response rating, Ryegrass, Italian [8, 23]: 5
Plant response rating, Ryegrass, Italian [8, 17]: 10
Plant response rating, Ryegrass, Italian [8, 18]: 55
Plant response rating, Ryegrass, Italian [8, 24]: 75
Plant response rating, Ducksalad (0 to 100 scale, 0 is no effect, 100 is complete control) ([9]; 125 g ai/ha): 0
Plant response rating, Wheat [10, 12]: 5
Plant response rating, Wheat [10, 13]: 10
Plant response rating, Wheat [10, 14]: 10
Plant response rating, Wheat [10, 22]: 10
Plant response rating, Wheat [10, 23]: 0
Plant response rating, Wheat [10, 17]: 0
Plant response rating, Wheat [10, 18]: 0
Plant response rating, Wheat [10, 24]: 5
